Source: PMC8136485, “Were Ancestral Proteins Less Specific?” (Molecular Biology and Evolution, 2021)
Ends that are not written are not given here. * marks the point of attachment. 5FAM = O=C1OC2(c3ccc(O)cc3Oc3cc(O)ccc32)c2ccc(C(=O)*)cc21

Tests used:
hA5 = experiment: Fluorescence polarization, direct titration of probe peptide with protein; assay type: binding, human; settings: 0.03 μM probe, 0 to ≈200 μM protein, 2 mM CaCl2, then 5 mM EDTA added
Description: (§1) To mimic the phage display experiment, we measured binding by displacement of a fluorescently labeled probe peptide. For our probe, we used the competitor peptide from the phage display experiment with the addition of an N-terminal 5-FAM fluorophore (fig. 3A). […] We could then measure fluorescence polarization of the probe peptide as a function of increasing concentrations of unlabeled peptide. A peptide that binds at the same site as the probe will displace the probe and thereby change the fluorescence polarization.
(§2) We fit the curve to a single-site binding model: (6) P([protein])∼ΔPmax[protein]/[protein]+KD,probe+P0 where P0 is the polarization of the peptide in the absence of protein, ΔPmax is the change in signal from unbound peptide to bound to the protein, and KD,probe is the probe dissociation constant. After recording the titration curve in the presence of CaCl2, we added 5 mM EDTA to all wells and remeasured the curve.
(§3) Fig S6: Binding of /f_luorescent probe peptide is calcium dependent. Panel show measured /f_luorescence anisotropy for the peptide 5FAM- GFDWR […] in the presence of […]
(§4) increasing protein concentration. Probe concentration was 0.03 uM. Proteins are hA5 (purple), hA6 (orange), ancA5/A6 (green), and human S100A9 (black). S100A9 is a negative control, because it is evolutionarily distant from hA5 and hA6 and would thus not be expec ted to bind to the probe […]

hA6 = experiment: as above; assay type: binding, human; settings: 0.03 μM probe, 0 to ≈200 μM protein, 2 mM CaCl2, then 5 mM EDTA added
Description: as §1, §2, §3, §4

ancA5/A6 = experiment: as above; assay type: binding; settings: 0.03 μM probe, 0 to ≈200 μM protein, 2 mM CaCl2, then 5 mM EDTA added
Description: as §1, §2, §3, §4

hA5 (human S100A5) [1] = target: T1, hA5 (human S100A5) (Homo sapiens, UniProt P33763); experiment: Fluorescence polarization, displacement of 5FAM probe peptide; assay type: binding; settings: displacement of 5FAM-labelled probe, 50 mM TES, 100 mM NaCl, 0.01% Tween-20, pH 7.4, 2.4-4.2 µM protein with equal probe, technical triplicate, corrected for probe
T1 construct: His tag with TEV protease cleavage site (N, cleaved yes); made in house; host or cells: Rosetta E. coli (DE3) pLysS
T1 sequence (P33763 1-92): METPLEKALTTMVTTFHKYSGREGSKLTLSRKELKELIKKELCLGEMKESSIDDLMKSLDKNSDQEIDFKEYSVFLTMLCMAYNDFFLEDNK
Description: as §1
(§5) We did the fluorescence polarization experiments in 50 mM TES, 100 mM NaCl, and 0.01% Tween-20, pH 7.4, thus matching the phage display experimental buffer. We ordered all nine test peptides and the probe peptide in milligram quantities at 95% purity (Genscript). For the probe peptide, we used “5FAM-[…],” where 5FAM indicates an N-terminally linked 5-carboxyfluorescein moiety. […] The only exception was […], which we dissolved in ddH2O .
(§6) We measured fluorescence anisotropy using a SpectraMax i3 plate reader (Molecular Devices) with 96-well black plates (Corning). Prior to reading each plate, we shook for 5 s and then acquired with 500 ms integration time. Prior to the set of experiments, we optimized detector height and calibrated the plate’s xy position to maximize signal. We then kept this calibration throughout the set of experiments. For each experiment, we recorded both vertical (vv) and horizontal (vh) emission channels and then converted to arbitrary polarization units by: (5) R=vv−Gvh/vv+2Gvh with G set to 1.0. Titrations were done by serial dilution through conditions on individual plates, followed by measurement of all wells. We did all measurements in technical triplicate. We used custom software to programmatically remove technical replicate outliers.
(§7) For our production experiments, we added increasing amounts of competitor peptide to wells with between 2.4 and 4.2 µM protein (monomer). Each well also contained probe peptide at the same concentration as the protein. We selected these concentrations to maximize the amount of signal change upon addition of competitor peptide KD,probe . We calculated the expected signal change by: (7) ΔPpredicted=ΔPmax×[MX]/[X]T where ΔPmax=0.135 (as determined by our initial fits to extract probe peptide KD,probe ), [X]T was the total probe concentration, and [MX] was the concentration of the probe/protein complex prior to adding competitor peptide. We calculated [MX] by: (8) [MX]=([X]T+[M]T+KD,probe)±([X]T+[M]T+KD,probe)^2−4[X]T[M]T/2 where [M]T was the total protein concentration.
(§8) Prior to fitting a binding model to each curve, we converted it from polarization to fractional saturation. We did so by first fitting the single-site binding model to the data to obtain an estimate of the initial polarization (P0) for the protein/peptide pair. We then subtracted this value of P0 to obtain a baseline-subtracted polarization. We then divided the baseline-subtracted polarization by ΔPpredicted , yielding a fractional saturation (θ).
(§9) We then fit a reduced form of the single-site binding model to the data: (9) θ=[protein]/[protein]+KD,apparent
(§10) Finally, we corrected the resulting KD,apparent to account for the effect of the competitor peptide ([Hulme and Trevethick 2010]): (10) KD,peptide=KD,apparent/1+[X]T*(1−δ/2)/KD,probe+δ/(1−δ) where [X]T is the total probe peptide concentration and δ=[MX]/[X]T .

hA6 (human S100A6) [2] = target: T2, hA6 (human S100A6) (Homo sapiens, UniProt P06703); experiment: as above; assay type: binding; settings: displacement of 5FAM-labelled probe, 50 mM TES, 100 mM NaCl, 0.01% Tween-20, pH 7.4, 2.4-4.2 µM protein with equal probe, technical triplicate, corrected for probe
T2 construct: His tag with TEV protease cleavage site (N, cleaved yes); made in house; host or cells: Rosetta E. coli (DE3) pLysS
Description: as §1, §5, §6, §7, §8, §9, §10

[3] = system: ancA5/A6 (reconstructed last common ancestor of S100A5 and S100A6); experiment: Quantitative phage display enrichment with/without competitor peptide; assay type: binding; settings: ancA5/A6 (aA5A6 in csv); E=−ln(cnon-competitor/ccompetitor); panning in 2 mM Ca2+, elution 5 mM EDTA; 20 μM competitor; E≤−1.5 taken as binder
Description: (§11) We next set out to measure the binding of S100 proteins to this library of random 12-mer peptides. The S100 peptide-binding interface is only exposed upon Ca^2+ -binding (fig. 1A); therefore, we performed phage panning experiments in the presence of saturating Ca^2+ and then eluted the bound phage using saturating ethylenediaminetetraacetic acid (EDTA) (fig. 2B). After this panning step, the population of enriched phage particles will be a mixture of those that bind at the site of interest and those that bind adventitiously (blue and purple phage, fig. 2B) ([Sidhu et al. 2000]; [Willats 2002]). To separate these populations, we repeated the panning experiment in the presence of a saturating concentration of competitor peptide known to bind at the site of interest ([…], fig. 2C) ([Wheeler et al. 2018]). This should lower the enrichment of peptides that bind at the site of interest, while allowing any adventitious interactions to remain. By comparing the competitor and noncompetitor pools, we can distinguish between specific and adventitious binders.
(§12) After panning, we sequenced the resulting phage pools using Illumina sequencing. […] We estimated changes in the frequencies of peptides between samples with and without competitor peptide (supplementary fig. S3, Supplementary Material online). For each peptide, we determined E: (1) E=−ln(cnon-competitor/ccompetitor) where ccompetitor and cnon-competitor are the sequence counts for the peptide recovered from parallel Ca^2+/EDTA panning experiments done with and without competitor peptides.
(§13) If E < 0, the competitor peptide interferes with the Ca^2+ -dependent enrichment of the peptide. […] If E > 0, the competitor peptide improves Ca^2+ -dependent enrichment of the phage peptide. This could occur if the phage peptide binds more favorably to the S100/competitor peptide complex than the S100 alone. […]
(§14) Phage display experiments were performed using the PhD-12 peptide phage display kit (NEB). […] Eluates were tittered to quantify eluted phage as follows. […]

hA5 (human S100A5) [4] = target: T1, hA5 (human S100A5); experiment: as above; assay type: binding; settings: E=−ln(cnon-competitor/ccompetitor), panning in 2 mM Ca2+, elution 5 mM EDTA, 20 μM competitor, E≤−1.5 taken as binder
Description: as §11, §12, §13, §14

hA6 (human S100A6) [5] = target: T2, hA6 (human S100A6); experiment: as above; assay type: binding; settings: E=−ln(cnon-competitor/ccompetitor), panning in 2 mM Ca2+, elution 5 mM EDTA, 20 μM competitor, E≤−1.5 taken as binder
Description: as §11, §12, §13, §14

Substance | Kd (hA5 (human S100A5) [1]) | Kd (hA6 (human S100A6) [2]) | further results
5FAM-GFDWRWGMEALTGGGSAE [probe] |  |  | calcium dependence of probe binding (hA5): bound in a calcium-dependent manner; calcium dependence of probe binding (hA6): bound in a calcium-dependent manner; calcium dependence of probe binding (ancA5/A6): bound in a calcium-dependent manner
EGLDLMSILELIGGSAE [phage_ctl_0] | 47.2 µM | 48.7 µM | 
EQPLLKYLQLMRGGSAE [phage_ctl_5] | 85.8 µM |  | 
GEVTNYGYLVDQGGSAE [phage_ctl_7] |  | 42.7 µM | 
GWLEQYFSRTADGGSAE [phage_ctl_2] | 18.6 µM | 14.6 µM | 
HVQWRDRNVIEWGGSAE [phage_ctl_6] | 123 µM |  | 
RHGFLQDILFKLGGSAE [phage_ctl_1] | 36.4 µM | 61.7 µM | 
SGPSDWLHKGVLGGSAE [phage_ctl_9, phage display 12-mer peptide with C-terminal flank, ordered as synthetic test peptide] |  |  | E (enrichment) [3]: 5.052; E (enrichment) (hA5 (human S100A5) [4]): 0.5882; E (enrichment) (hA6 (human S100A6) [5]): 0.5131
SRQTTSTHEWVVGGSAE [phage_ctl_4] |  | 102 µM | Kd (KD,peptide) (hA5 (human S100A5) [1]): No model could be reliably fit
SSSTYPGFRQSTGGSAE [phage_ctl_8] |  | 202 µM | 
